In patent US20110217300A1, “Quinazolinone Compounds and Methods of Use Thereof” (priority 2007, published 2011):

Legend:
HsEg5 = target: T1, HsEg5 (Homo sapiens, UniProt P52732); assay: Luminescent detection of HsEg5 ATPase activity (Kinase-Glo Plus); format: biochemical
T1 sequence (P52732 18-359 limits assumed): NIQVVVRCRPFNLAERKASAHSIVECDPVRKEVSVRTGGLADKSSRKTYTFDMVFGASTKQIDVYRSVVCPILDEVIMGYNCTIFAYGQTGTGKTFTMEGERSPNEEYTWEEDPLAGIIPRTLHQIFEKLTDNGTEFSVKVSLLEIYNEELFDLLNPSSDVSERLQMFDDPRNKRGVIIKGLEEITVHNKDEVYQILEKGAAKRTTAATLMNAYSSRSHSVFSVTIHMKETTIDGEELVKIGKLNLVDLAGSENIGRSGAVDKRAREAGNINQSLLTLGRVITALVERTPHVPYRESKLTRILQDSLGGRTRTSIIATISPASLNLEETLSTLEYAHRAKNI
Method: Purified HsEg5 motor fragment was activated by mixture with preformed MT polymer (Cytoskeleton, Denver, Colo.) at room temperature for 20 minutes. MT activated ATPase activity was measured using Kinase-Glo® Plus Luminescent Kinase Assay (Promega, Madison, Wis.).
For inhibitor screening, 5 μL of compounds were incubated with 20 μL of MT-activated HsEg5 such that the final concentrations for compound range from 100 μM to 5 nM (1 to 3 serial dilutions, final concentration) and final concentration for HsEg5 is 25 nM. The mixture was incubated at room temperature for 20 minutes with mild shaking. The screening assay contained 0.3% DMSO in all reaction wells. We used wells containing only DMSO as negative controls and wells without ATP as background. Addition of 15 μL of 13 μM ATP (final concentration of 5 μM) initiated the ATP hydrolysis reaction. The 40 μL-reaction was allowed to proceed at room temperature for 45 minutes before addition of 40 μL of Kinase®-Glo Plus. After 15-minute development at room temperature, the luminescent was measured.
Eg5 IC50 data was generated using both fluorescence and Luminescence detection assays as described above. Compounds I-69 were screened using automated fluorescence assay while compounds 70-83 were screened using Luminescence detection assay. (See reference “Zhang B, Senator D, Wilson C J, Ng S C. (2005) “Development of a high-throughput robotic fluorescence-based assay for HsEg5 inhibitor screening” Anal Biochem. 345:326-335″).

NCI-H460 = assay: MTS cell viability assay; format: cell-based, human; conditions: Homo sapiens, NCI-H460, 72 h, read-out: MTS NCI H460 GI50
Procedure, shortened: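 Human cancer cells plated at 100-5000 cells/well, left 16-24 h, then exposed 72 h to serially diluted compound (final DMSO 0.33%) in DMEM with 10% FBS at 37° C. MTS/PMS added for 4 h, SDS-stopped, absorbance read at 490 nm; GI50 derived, at least 2 replicates.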

A549 = assay: MTS cell viability assay; format: cell-based; conditions: Homo sapiens, A549, 72 h, read-out: MTS NCI A549 GI50
Procedure, shortened: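 A549 and a second human cancer line seeded in DMEM/10% FBS, allowed 16–24 h to attach, then exposed 72 h at 37 °C, 5% CO2 to serially diluted compound (final DMSO 0.33%). Viability measured by MTS.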

C#CC[C@H](c1nc2cccnc2c(=O)n1Nc1ccccc1)N(CCCN)C(=O)c1cccc(Cl)c1F [Compound 83, (R)—N-(3-Aminopropyl)-3-chloro-2-fluoro-N-(1-(4-oxo-3-(phenylamino)-3,4-dihydropyrido[3,2-d]pyrimidin-2-yl)but-3-ynyl)benzamide]
IC50 (HsEg5): 6.6 µM | GI50 (NCI-H460): 27 µM | GI50 (A549): > 100 µM
